This note sets out measurements from the supplement of paper PMC10307832.

Assay in all cases: relative viability (nuclei count vs DMSO), 5 days (fraction); higher = more cells survive
Compound in the assay “Pemetrexed + Vorinostat”: Nc1nc2[nH]cc(CCc3ccc(C(=O)N[C@@H](CCC(=O)O)C(=O)O)cc3)c2c(=O)[nH]1 [Pemetrexed] + O=C(CCCCCCC(=O)Nc1ccccc1)NO [Vorinostat] (partner 1 µM)
A digest of the protocol: (§1)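 Relative viability is defined as nuclei in treated wells over nuclei in vehicle wells. Duplicate plates were run and medians reported. Lung cancer cell lines in 1536-well plates were dosed by pin tool one day after seeding, with one drug or with a fixed anchor-drug dose plus five library-drug doses (not always all listed) in √10 steps, and nuclei were counted after 5 days.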

Compound in the assay “Idelalisib + Navitoclax”: CC[C@H](Nc1ncnc2[nH]cnc12)c1nc2cccc(F)c2c(=O)n1-c1ccccc1 [Idelalisib] + CC1(C)CCC(c2ccc(Cl)cc2)=C(CN2CCN(c3ccc(C(=O)NS(=O)(=O)c4ccc(N[C@H](CCN5CCOCC5)CSc5ccccc5)c(S(=O)(=O)C(F)(F)F)c4)cc3)CC2)C1 [Navitoclax] (partner 0.5 µM)
Put shortly: as §1

Compound in the assay “Idelalisib + Palbociclib”: CC[C@H](Nc1ncnc2[nH]cnc12)c1nc2cccc(F)c2c(=O)n1-c1ccccc1 [Idelalisib] + CC(=O)c1c(C)c2cnc(Nc3ccc(N4CCNCC4)cn3)nc2n(C2CCCC2)c1=O [Palbociclib] (partner 0.5 µM)
Put shortly:
as §1

Compound in the assay “Pemetrexed + Foretinib”: Nc1nc2[nH]cc(CCc3ccc(C(=O)N[C@@H](CCC(=O)O)C(=O)O)cc3)c2c(=O)[nH]1 [Pemetrexed] + COc1cc2c(Oc3ccc(NC(=O)C4(C(=O)Nc5ccc(F)cc5)CC4)cc3F)ccnc2cc1OCCCN1CCOCC1 [Foretinib] (partner 0.25 µM)
A digest of the protocol: as §1

In the case of UMC-11, the relative viability worked out at 0.425 with Pemetrexed + Vorinostat (first compound 0.002 µM); 0.355 with Pemetrexed + Vorinostat (first compound 0.006325 µM); 0.44 in the assay with Pemetrexed + Vorinostat (first compound 0.02 µM); 0.347 in the assay with Pemetrexed + Vorinostat (first compound 0.06325 µM); 0.35 with Pemetrexed + Vorinostat (first compound 0.2 µM); 0.366 in the assay with Idelalisib + Navitoclax (first compound 0.04 µM). Further, the relative viability with Idelalisib + Navitoclax (first compound 0.1265 µM) was determined as 0.326; in the assay with Idelalisib + Navitoclax (first compound 0.4 µM), 0.274; with Idelalisib + Navitoclax (first compound 1.265 µM), 0.291; with Idelalisib + Navitoclax (first compound 4 µM), 0.336; in the assay with Idelalisib + Palbociclib (first compound 0.04 µM), 0.335; with Idelalisib + Palbociclib (first compound 0.1265 µM), 0.33. The relative viability was 0.298 with Idelalisib + Palbociclib (first compound 0.4 µM); 0.298 in the assay with Idelalisib + Palbociclib (first compound 1.265 µM); 0.261 in the assay with Idelalisib + Palbociclib (first compound 4 µM); 1.02 in the assay with Pemetrexed + Foretinib (first compound 0.002 µM); 0.943 with Pemetrexed + Foretinib (first compound 0.006325 µM); 1.14 with Pemetrexed + Foretinib (first compound 0.02 µM). Moreover, the relative viability is 1.02 with Pemetrexed + Foretinib (first compound 0.06325 µM) and 0.847 with Pemetrexed + Foretinib (first compound 0.2 µM).
